# In US20240383882A1 (Ecstasy LLC, priority 2020, published 2024):
# System: male C57BL/6 mice
# Assay: 55° C. warm-water tail-flick test (antinociception)
# Type: in vivo
# Conditions: Mus musculus; half maximal effective dose in mice; using one of: warm water tail-flick test, spared nerve injury, chronic constriction injury, or Complete Freund's adjuvant induced inflammatory pain (not stated which per compound); read-out: Biological Activity (ED50)
# Summary of the method: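 Subcutaneous dosing, then tail immersion in 55° C water at 30–120 min; latency normalized as 100×(test−control)/(20−control), using a 20 s cutoff, after excluding mice not responding within 2 s at baseline. Values expressed as ED50 (mg/kg).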
row,SMILES,ED50 [mg/kg]
1,"CC(C)(c1ccccn1)N1CC[C@](C#N)(CCc2ccc3ccoc3c2)C1 [Compound 180, (R)-3-(2-(benzofuran-6-yl)ethyl)-1-(2-(pyridin-2-yl)propan-2-yl)pyrrolidine-3-carbonitrile]",> 50
2,"CC(C)(c1ccccn1)N1CC[C@@](CCc2ccc3nonc3c2)(c2nn[nH]n2)C1 [Compound 181, (R)-5-(2-(1-(2-(pyridin-2-yl)propan-2-yl)-3-(2H-tetrazol-5-yl)pyrrolidin-3-yl)ethyl) benzo[c] [1,2,5]oxadiazole]",> 50
3,"CC(C)(c1ccccn1)N1CC[C@@](CCc2ccc(C#N)cc2)(c2nn[nH]n2)C1 [Compound 182, (R)-4-(2-(1-(2-(pyridin-2-yl)propan-2-yl)-3-(2H-tetrazol-5-yl)pyrrolidin-3-yl)ethyl) benzonitrile]",> 50
4,"CC(C)(c1ccccn1)N1CC[C@@](CCc2ccc3ccoc3c2)(c2nn[nH]n2)C1 [Compound 183, (R)-2-(2-(3-(2-(benzofuran-6-yl)ethyl)-3-(2H-tetrazol-5-yl)pyrrolidin-1-yl)propan-2-yl)pyridine]",> 50
5,"CC(C)(c1ccccn1)N1CC[C@](CO)(CCc2cnc3ccccc3n2)C1 [Compound 184, (R)-(1-(2-(pyridin-2-yl)propan-2-yl)-3-(2-(quinoxalin-2-yl)ethyl)pyrrolidin-3-yl)methanol]",> 50
6,"CC(C)(c1ccccn1)N1CC[C@@](/C=C/c2ccc(C#N)cc2)(c2nn[nH]n2)C1 [Compound 185, (S,E)-4-(2-(1-(2-(pyridin-2-yl)propan-2-yl)-3-(2H-tetrazol-5-yl)pyrrolidin-3-yl)vinyl) benzonitrile]",> 50
7,"CCOC(C(F)(F)F)(C(F)(F)F)[C@]1(/C=C/c2ccc3nonc3c2)CCN(C(C)(C)c2ccc(C)nc2)C1 [Compound 186, (S,E)-5-(2-(3-(2-ethoxy-1,1,1,3,3,3-hexafluoropropan-2-yl)-1-(2-(6-methylpyridin-3-yl)propan-2-yl)pyrrolidin-3-yl)vinyl)benzo[c] [1,2,5]oxadiazole]",≤ 30
8,"CCOC(C(F)(F)F)(C(F)(F)F)[C@]1(/C=C/c2cnc3ccccc3n2)CCN(C(C)(C)c2ccc(C)nc2)C1 [Compound 187, (S,E)-2-(2-(3-(2-ethoxy-1,1,1,3,3,3-hexafluoropropan-2-yl)-1-(2-(6-methylpyridin-3-yl)propan-2-yl)pyrrolidin-3-yl)vinyl)quinoxaline]",> 50
9,"CC(C)(c1ccccn1)N1CC[C@@](/C=C/c2ccc(C(F)(F)F)o2)(COCc2ccccc2)C1 [Compound 188, (S,E)-2-(2-(3-((benzyloxy)methyl)-3-(2-(5-(trifluoromethyl)furan-2-yl)vinyl)pyrrolidin-1-yl)propan-2-yl)pyridine]",> 50
10,"CC(C)(c1ccccn1)N1CC[C@](CO)(CCc2ccc(C(F)(F)F)o2)C1 [Compound 189, (R)-(1-(2-(pyridin-2-yl)propan-2-yl)-3-(2-(5-(trifluoromethyl)furan-2-yl)ethyl)pyrrolidin-3-yl)methano]",> 50
11,"CC(C)(c1ccccn1)N1CC[C@](CO)(CCc2cnc(C(F)(F)F)nc2)C1 [Compound 190, (R)-(1-(2-(pyridin-2-yl)propan-2-yl)-3-(2-(2-(trifluoromethyl)pyrimidin-5-yl)ethyl)pyrrolidin-3-yl)methanol]",> 50
12,"CC(C)(c1ccccn1)N1CC[C@@](CCc2ccc3ccoc3c2)(c2c[nH]nn2)C1 [Compound 191, (R)-2-(2-(3-(2-(benzofuran-6-yl)ethyl)-3-(1H-1,2,3-triazol-4-yl)pyrrolidin-1-yl)propan-2-yl)pyridine]",> 50
13,"CCOC[C@@]1(CCc2ccc(S(C)(=O)=O)cc2)CCN(C(C)(C)c2ccccc2)C1 [Compound 200, (S)-3-(ethoxymethyl)-3-(4-(methylsulfonyl)phenethyl)-1-(2-phenylpropan-2-yl)pyrrolidine]",≤ 30
14,"CC(C)(c1ccccn1)N1CC[C@@](CCc2ccc(C#N)cc2)(C(=O)NC2(C(F)(F)F)CC2)C1 [Compound 201, (R)-3-(4-cyanophenethyl)-1-(2-(pyridin-2-yl)propan-2-yl)-N-(1-(trifluoromethyl)cyclopropyl) pyrrolidine-3-carboxamide]",≤ 30
15,"CC(C)(c1ccccn1)N1CC[C@@](CCc2ccc(C#N)cc2)(CNC2(C(F)(F)F)COC2)C1 [Compound 202, (S)-4-(2-(1-(2-(pyridin-2-yl)propan-2-yl)-3-(((3-(trifluoromethyl)oxetan-3-yl)amino)methyl)pyrrolidin-3-yl)ethyl) benzonitrile]",> 50
16,"CC(C)(c1ccccn1)N1CC[C@@](CCc2ccc(C#N)cc2)(CNC2(C(F)(F)F)CC2)C1 [Compound 203, (S)-4-(2-(1-(2-(pyridin-2-yl)propan-2-yl)-3-(((1-(trifluoromethyl)cyclopropyl)amino)methyl)pyrrolidin-3-yl)ethyl) benzonitrile]",> 50
17,"CC(C)(c1ccccn1)N1CC[C@@](CCc2ccc(C#N)cc2)(C(=O)NC2(C(F)(F)F)COC2)C1 [Compound 206, (R)-3-(4-cyanophenethyl)-1-(2-(pyridin-2-yl)propan-2-yl)-N-(3-(trifluoromethyl)oxetan-3-yl)pyrrolidine-3-carboxamide]",≤ 30
18,"CC(C)(c1ccccn1)N1CC[C@@](CCc2ccc(C#N)cc2)(C(=O)Nc2ccc(F)cn2)C1 [Compound 207, (R)-3-(4-cyanophenethyl)-N-(5-fluoropyridin-2-yl)-1-(2-(pyridin-2-yl)propan-2-yl)pyrrolidine-3-carboxamide]",≤ 30
19,"CC(C)(c1ccccn1)N1CC[C@@](CCc2ccc(C#N)cc2)(C(=O)NC2(C#N)COC2)C1 [Compound 208, (R)-N-(3-cyanooxetan-3-yl)-3-(4-cyanophenethyl)-1-(2-(pyridin-2-yl)propan-2-yl)pyrrolidine-3-carboxamide]",≤ 30
20,"CC(C)(c1ccccn1)N1CC[C@@](CCc2ccc(C#N)cc2)(CNC2(C#N)COC2)C1 [Compound 209, (S)-3-(((3-(4-cyanophenethyl)-1-(2-(pyridin-2-yl)propan-2-yl)pyrrolidin-3-yl)methyl)amino) oxetane-3-carbonitrile]",> 50
21,"CC(C)(c1ccccc1)N1CC[C@](CCc2ccc(S(C)(=O)=O)cc2)([C@@H](O)C(F)(F)F)C1 [Compound 212, (R)-2,2,2-trifluoro-1-((S)-3-(4-(methylsulfonyl)phenethyl)-1-(2-phenylpropan-2-yl)pyrrolidin-3-yl)ethan-1-ol]",≤ 30
22,"CC(C)(c1ccccn1)N1CC[C@](CO)(CCc2ccc(F)cc2)C1 [Compound 215, (R)-(3-(4-fluorophenethyl)-1-(2-(pyridin-2-yl)propan-2-yl)pyrrolidin-3-yl)methanol]",> 50
23,"CCOC[C@]1(CCc2ccc(S(C)(=O)=O)cc2)CCN(C(C)(C)c2ccc(Cl)cc2)C1 [Compound 221, (R)-1-(2-(4-chlorophenyl)propan-2-yl)-3-(ethoxymethyl)-3-(4-(methylsulfonyl)phenethyl) pyrrolidine]",> 50
24,"CC(C)(c1ccccn1)N1CC[C@](CCc2ccc(C#N)cc2)(c2ncc[nH]2)C1 [Compound 225, (S)-4-(2-(3-(1H-imidazol-2-yl)-1-(2-(pyridin-2-yl)propan-2-yl)pyrrolidin-3-yl)ethyl) benzonitrile]",> 50
25,"CC(C)(c1ccc(F)cn1)N1CC[C@@](CO)(CCc2ccc(C#N)cc2)C1 [Compound 226, (S)-4-(2-(1-(2-(5-fluoropyridin-2-yl)propan-2-yl)-3-(hydroxymethyl)pyrrolidin-3-yl)ethyl) benzonitrile]",> 50
